Experimental data as given in patent US20100273649A1, “Fungicidal Mixtures III” (BASF SE, priority 2007, published 2010).
Read-outs that look alike come from different tables or passages of the source.

Tests used:
Assay type in all cases: cell-based
[1] = system: Septoria tritici; assay: Activity against leaf blotch on wheat caused by Septoria tritici, microtiter test (Septtr); settings: active compound alone, 7 days after inoculation
[2] = system: Phytophthora infestans; settings: active compound alone, 7 days after inoculation
[3] = system: Botrytis cinerea; assay: Activity against grey mold caused by Botrytis cinerea in the microtiterplate test (Botrici)
[4] = system: Pyricularia oryzae; settings: active compound alone, 7 days after inoculation
[5] = Botrytis cinerea, 168 h, active compound alone, 4 ppm, 7 days after inoculation, read-out: Observed efficacy
[6] = Botrytis cinerea, 168 h, active compound alone, 1 ppm, 7 days after inoculation, read-out: Observed efficacy

Fc1ccc([C@]2(Cn3cncn3)O[C@H]2c2ccccc2Cl)cc1 (racemic) [Epoxiconazole, (2RS,3SR)-1-[3-(2-chlorophenyl)-2,3-epoxy-2-(4-fluorophenyl)propyl]-1H-1,2,4-triazole]
Observed efficacy ([1]; 0.016 ppm): 14% | Observed efficacy ([2]; 0.25 ppm): 12% | inhibition of growth at 0.063 ppm ([3]; Botrytis cinerea, 168 h, active compound alone, 0.063 ppm, 7 days after inoculation, read-out: Observed efficacy): 4%

O=C(Nc1ccccc1-c1ccc(Cl)cc1)c1cccnc1Cl [Boscalid, 2-chloro-N-(4′-chlorobiphenyl-2-yl)nicotinamide]
inhibition of growth at 4 ppm [3, 5]: 45%

O=C1C2CC=CCC2C(=O)N1SC(Cl)(Cl)Cl (stereo not shown) [Captan, 2-trichloromethylsulfanyl-3a,4,7,7a-tetrahydroisoindole-1,3-dione]
Observed efficacy ([2]; 1 ppm): 26% | inhibition of growth at 1 ppm [3, 6]: 64%

N#Cc1c(Cl)c(Cl)c(Cl)c(C#N)c1Cl [Chlorothalonil, 2,4,5,6-tetrachloroisophthalonitrile]
Observed efficacy ([2]; 0.25 ppm): 20%

Cc1ccc(-c2c(Cl)nc(C#N)n2S(=O)(=O)N(C)C)cc1 [Cyazofamid, 4-chloro-2-cyano-N,N-dimethyl-5-(4-methylphenyl)-1H-imidazole-1-sulfonamide]
inhibition of growth at 0.25 ppm ([3]; Botrytis cinerea, 168 h, active compound alone, 0.25 ppm, 7 days after inoculation, read-out: Observed efficacy): 0%

C=C(C(=O)OCc1cccc(C(F)(F)F)c1)C(O)c1cccnc1 (stereo not shown) [I.1, (3-trifluoromethylphenyl)methyl 2-[hydroxyl(pyridine-3-yl)methyl]acrylate]
Observed efficacy ([1]; 0.016 ppm): 9% | Observed efficacy ([1]; 16 ppm): 47% | Observed efficacy ([2]; 1 ppm): 1% | Observed efficacy ([2]; 4 ppm): 0% | Observed efficacy ([2]; 16 ppm): 42% | inhibition of growth at 4 ppm [3, 5]: 5% | Observed efficacy ([4]; 0.016 ppm): 5%

O=C(OCc1cccc(C(F)(F)F)c1)C(=Cc1ccccc1)C(O)c1cccnc1 (stereo not shown) [I.3, (3-trifluoromethylphenyl)methyl 2-[hydroxyl(pyridine-3-yl)methyl]-3-phenylacrylate]
Observed efficacy ([1]; 0.063 ppm): 51% | Observed efficacy ([2]; 1 ppm): 8% | Observed efficacy ([2]; 4 ppm): 10% | inhibition of growth at 1 ppm [3, 6]: 9% | inhibition of growth at 4 ppm [3, 5]: 16% | Observed efficacy ([4]; 0.25 ppm): 2%

Cc1ccc(C(C)NC(=O)[C@@H](NC(=O)OC(C)C)C(C)C)cc1 (stereo partly drawn) [Iprovalicarb, isopropyl [(1S)-2-methyl-1-(1-p-tolylethylcarbamoyl)propyl]carbamate]
inhibition of growth at 1 ppm ([3]; Botrytis cinerea, 168 h, read-out: Observed efficacy): 2%

COC=C(C(=O)OC)c1ccccc1COc1cccc(C(F)(F)F)n1 [Picoxystrobin, methyl 3-methoxy-2-[2-(6-trifluoromethylpyridin-2-yloxymethyl)phenyl]acrylate]
Observed efficacy ([2]; 0.25 ppm): 66% | Observed efficacy ([4]; 0.016 ppm): 21%

COC(=O)N(OC)c1ccccc1COc1ccn(-c2ccc(Cl)cc2)n1 [Pyraclostrobin, pyraclostrobin]
Observed efficacy ([1]; 0.001 ppm): 21% | Observed efficacy ([4]; 0.001 ppm): 38%

Cc1cc(C)nc(Nc2ccccc2)n1 [Pyrimethanil, 4,6-di-methylpyrimidin-2-ylphenylamine]
Observed efficacy ([1]; 16 ppm): 50%

zinc propylenebis(dithiocarbamate) polymer [Propineb]
Observed efficacy ([3]; active compound alone, 4 ppm, 7 days after inoculation): 21%
